Data from US7879876B2, “Sulfonamide derivatives and use thereof for the modulation of metalloproteinases” (Merck Serono SA, priority 2005, dated 2011).

Tests used:
[1] = target: T1, collagenase (MMP-1) (Homo sapiens, UniProt P03956); test: MMP-1 enzyme inhibition assay (coumarin-labelled peptide substrate); format: biochemical; conditions: for IC50: read-out: IC50 MMP1
T1 sequence (P03956 100-469): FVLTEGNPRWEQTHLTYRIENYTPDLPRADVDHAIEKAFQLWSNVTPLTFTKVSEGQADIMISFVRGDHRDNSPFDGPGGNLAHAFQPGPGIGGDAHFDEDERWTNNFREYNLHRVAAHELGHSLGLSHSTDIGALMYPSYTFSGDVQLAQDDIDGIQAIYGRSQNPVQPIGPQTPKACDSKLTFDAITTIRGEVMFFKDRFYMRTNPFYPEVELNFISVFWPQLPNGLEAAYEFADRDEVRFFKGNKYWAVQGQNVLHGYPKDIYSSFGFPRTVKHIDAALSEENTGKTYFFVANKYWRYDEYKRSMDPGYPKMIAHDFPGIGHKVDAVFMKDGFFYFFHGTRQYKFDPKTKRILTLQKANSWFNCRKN
Method: (§1) Compounds of the invention were tested to assess their activities as inhibitors of MMP-1, MMP-2, MMP-9, MMP-14, MMP-12 and TACE. MMP-9 Assay Protocol
Compounds of the invention were tested for inhibitory activity against 92 kDa gelatinase (MMP-9) in an assay using a coumarin-labeled peptide substrate, (7-methoxycoumarin-4-yl)acetyl-Pro-Leu-Gly-Leu-(3-[2,4-dinitrophenyl]-L-2,3diaminopropionyl)-Ala-Arg-NH2 (McaPLGLDpaAR) (Knight et al, FEBS Lett. 1992; 263-266).
Stock solutions were made up as follows: Assay Butter: 100 mM Tris-HCl pH 7.6 containing 100 mM NaCl, 10 mM CaCl2, and 0.05% Brij 35.
Substrate: 0.4 mM McaPLGLDpaAR (from Bachem) (0.437 mg/ml) stock solution in 100% DMSO (stored at −20° C.). Dilute to 8 μM in assay butter.
Enzyme: Recombinant human 92 kDa gelatinase (MMP-9; APMA (4-aminophenyl mercuric acetate)-activated if necessary) appropriately diluted in assay butter.
Test Compounds were prepared initially as 10 mM compound solution in 100% DMSO, diluted to 1 mM in 100% DMSO, then serially diluted 3-fold in 100% DMSO across columns 1-10 of a 96-well microtitre plate Assay concentration range, 100 μM (column 1) to 5.1 nM (column 10).
The assay was performed in a total volume of 100 μL per well in 96-well microtitre plates. Activated enzyme (20 μL) was added to the wells followed by 20 μL of assay butter. Appropriate concentrations of test compounds dissolved in 10 μL of DMSO were then added followed by 50 μL of McaPLGLDpaAR (8 μM, prepared by dilution of DMSO stock in assay butter). For each as say ten concentrations of test compound were examined in duplicate. Control wells lack either enzyme or test compound. The reactions were incubated at 37° C. for 2 hours. The fluorescence at 405 nm was measured immediately with an SLT Fluostar fluorometer (SL T Labinstruments GmbH, Grödig, Austria) using 320 nm excitation, without stopping the reaction.
(§2) The effect of the test compound was determined from the dose response curve generated by the 10 duplicate concentrations of inhibitor. The IC50 (the concentration of compound required to give a 50% decrease in enzyme activity) was obtained by fitting data to the equation, Y=a+((b−a)/(1+(c/X)^d)). (Y=inhibition achieved for a particular dose; X=the dose in nM; a=minimum y or zero % inhibition; b=maximum y or 100% inhibition; c=is the IC50; d=is the slope). The result was rounded to one significant figure.
Compounds of the invention were tested for inhibitory activity against collagenase (MMP-1) in an assay using a coumarin-labelled peptide substrate, (7-methoxycoumarin-4-yl)acetyl-Pro-Leu-Gly-Leu-(3-[2,4-dinitrophenyl]-L-2,3diaminopropionyl)-Ala-Arg-NH2 (Mca PLGLDpaAR) (Knight et al, 1992, above). The protocol for this assay was as described for the MMP-9 assay above.

[2] = target: human ADAM17 (TACE) (Homo sapiens, UniProt P78536); test: TACE enzyme inhibition assay; format: biochemical
Method: as §1
Compounds of the invention can be tested for inhibitory activity against human ADAM17 in an assay using human Mca-(endo-1a-Dap(Dnp)-TNF-alpha(−5 to +6)amide as substrate (FEBS Letters, 2000, 275-279).
Stock solutions are prepared as followed: • Assay Buffer: 20 mM Hepes pH 7.5 (Fluka) containing 0.05% Brij 35 (Fluka) • Substrate: 6.1 mM human Mca-(endo-1a-Dap(Dnp)-TNF-alpha(−5 to +6)amide (Bachem) stock solution in 100% DMSO (stored at −20° C.); diluted to 5 μM in assay buffer. • Enzyme: Recombinant human ADAM17, appropriately diluted in assay buffer (1.5 μg/ml).
Test Compounds are prepared initially as 10 mM compound solution in 100% DMSO, diluted to 1 mM in 100% DMSO, then serially diluted 3-fold in 100% DMSO across a 96-well microtitre plate. Assay concentration range is typically between 100 μM to 0.01 nM. The assay is performed in a total volume of 100 μL per well in 96-well microtitre plates. Appropriate concentrations of test compounds dissolved in 10 μL of DMSO are added to the wells, followed by substrate solution (50 μL, 5 μM prepared by dilution of DMSO stock in assay buffer) and enzyme solution (40 μL). For each as say ten concentrations of test compound are examined in […]. Control wells lack either enzyme or test compound. The reactions are incubated at room temperature for 1.5 hours. The fluorescence at 405 nm is measured immediately with a fluorometer using 355 nm excitation, without stopping the reaction.
as §2, with “is” for “was”

[3] = read-out: percentage inhibition MMP1

human ADAM17 (TACE), sequence (P78536 215-824): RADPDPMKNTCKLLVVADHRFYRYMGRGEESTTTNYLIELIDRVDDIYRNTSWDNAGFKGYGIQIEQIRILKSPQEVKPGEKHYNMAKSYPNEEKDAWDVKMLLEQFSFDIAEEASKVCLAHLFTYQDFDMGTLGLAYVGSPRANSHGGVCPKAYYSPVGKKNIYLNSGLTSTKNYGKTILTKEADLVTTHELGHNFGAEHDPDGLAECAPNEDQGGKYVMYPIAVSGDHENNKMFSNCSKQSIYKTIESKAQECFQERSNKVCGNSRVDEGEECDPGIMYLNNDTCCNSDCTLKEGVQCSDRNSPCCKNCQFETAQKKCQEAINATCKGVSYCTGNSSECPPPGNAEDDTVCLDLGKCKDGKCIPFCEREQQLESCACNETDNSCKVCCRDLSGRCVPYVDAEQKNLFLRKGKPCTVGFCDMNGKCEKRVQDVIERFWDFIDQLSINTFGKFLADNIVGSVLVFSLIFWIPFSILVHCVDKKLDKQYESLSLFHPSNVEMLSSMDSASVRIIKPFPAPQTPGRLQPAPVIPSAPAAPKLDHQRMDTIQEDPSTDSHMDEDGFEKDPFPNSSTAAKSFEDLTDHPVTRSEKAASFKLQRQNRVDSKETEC

inhibition at 5 µM [1, 3] [%]	IC50 [2] [µM]	IC50 [1] [µM]	inhibition at 0.1 µM ([1]; @ 0.1 μM, read-out: percentage inhibition MMP1) [%]	SMILES
9	0.371	–	–	CC(C)(C)OC(=O)N1CCC[C@@H]1[C@@H](CS(=O)(=O)N1CCc2cc(Cl)c(Cl)cc2C1)N(O)C=O (racemic) [Example 44, tert-butyl (2RS)-2-{(1SR)-2-[(6,7-dichloro-3,4-dihydro-isoquinolin-2(1H)-yl)sulfonyl]-1-[formyl(hydroxy)amino]ethyl}pyrrolidine-1-carboxylate]
–	0.067	> 5	–	O=CN(O)C(CCc1ccccc1)CS(=O)(=O)N1CCc2ccccc2C1 (stereo not drawn) [Example 1, N-{1-[(3,4-dihydroisoquinolin-2(1H)-ylsulfonyl)methyl]-3-phenylpropyl}-N-hydroxyformamide]
–	0.033	> 5	–	CC1(C)OC[C@H](C(CS(=O)(=O)N2CCc3ccccc3C2)N(O)C=O)O1 (stereo partly drawn) [Example 2, N-{2-(3,4-dihydroisoquinolin-2(1H)-ylsulfonyl)-1-[(4S)-2,2-dimethyl-1,3-dioxolan-4-yl]ethyl}-N-hydroxyformamide]
31	0.028	–	–	CCCCCC(CS(=O)(=O)N1CCc2ccccc2C1)N(O)C=O (stereo not drawn) [Example 3, N-{1-[(3,4-dihydroisoquinolin-2(1H)-ylsulfonyl)methyl]hexyl}-N-hydroxyformamide]
19	0.114	–	–	O=CN(O)C(CS(=O)(=O)N1CCc2ccccc2C1)C1CC1 (stereo not drawn) [Example 4, N-[1-cyclopropyl-2-(3,4-dihydroisoquinolin-2(1H)-ylsulfonyl)ethyl]-N-hydroxyformamide]
–	0.28	> 5	–	O=CN(O)C(CCc1ccccc1)CS(=O)(=O)N1Cc2ccccc2C1 (stereo not drawn) [Example 6, N-{1-[(1,3-dihydro-2H-isoindol-2-ylsulfonyl)methyl]-3-phenylpropyl}-N-hydroxyformamide]
29	0.128	–	–	O=CN(O)C(CS(=O)(=O)N1CCc2ccccc2C1)c1cncnc1 (stereo not drawn) [Example 9, N-[2-(3,4-dihydroisoquinolin-2(1H)-ylsulfonyl)-1-pyrimidin-5-ylethyl]-N-hydroxyformamide]
8	0.067	–	–	O=CN(O)C(CS(=O)(=O)N1CCc2ccccc2C1)c1cccnc1 (stereo not drawn) [Example 10, N-[2-(3,4-dihydroisoquinolin-2(1H)-ylsulfonyl)-1-pyridin-3-ylethyl]-N-hydroxyformamide]
0	1.22	–	–	COc1cc2c(cc1OC)CN(S(=O)(=O)CC(CCc1ccccc1)N(O)C=O)CC2 (stereo not drawn) [Example 12, N-(1-{[(6,7-dimethoxy-3,4-dihydroisoquinolin-2(1H)-yl)sulfonyl]methyl}-3-phenylpropyl)-N-hydroxyformamide]
16	0.04	–	–	COc1ccc(C(CS(=O)(=O)N2CCc3ccccc3C2)N(O)C=O)cn1 (stereo not drawn) [Example 13, N-[2-(3,4-dihydroisoquinolin-2(1H)-ylsulfonyl)-1-(6-methoxypyridin-3-yl)ethyl]-N-hydroxyformamide]
0	0.62	–	–	COc1cc2c(cc1OC)CN(S(=O)(=O)CC([C@H]1COC(C)(C)O1)N(O)C=O)CC2 (stereo partly drawn) [Example 14, N-{2-[(6,7-dimethoxy-3,4-dihydroisoquinolin-2(1H)-yl)sulfonyl]-1-[(4S)-2,2-dimethyl-1,3-dioxolan-4-yl]ethyl}-N-hydroxyformamide]
74	0.311	–	5	CC1(C)OC[C@H](C(CS(=O)(=O)N2Cc3ccccc3C2)N(O)C=O)O1 (stereo partly drawn) [Example 16, N-{2-(1,3-dihydro-2H-isoindol-2-ylsulfonyl)-1-[(4S)-2,2-dimethyl-1,3-dioxolan-4-yl]ethyl}-N-hydroxyformamide]
9	0.64	–	–	CC(C)c1ccc2c(c1)CCN(S(=O)(=O)CC([C@H]1COC(C)(C)O1)N(O)C=O)C2 (stereo partly drawn) [Example 18, N-{1-[(4S)-2,2-dimethyl-1,3-dioxolan-4-yl]-2-[(6-isopropyl-3,4-dihydroisoquinolin-2(1H)-yl)sulfonyl]ethyl}-N-hydroxyformamide]
45	0.023	–	–	CC1(C)OC[C@H](C(CS(=O)(=O)N2CCc3ccc(Cl)cc3C2)N(O)C=O)O1 (stereo partly drawn) [Example 19, N-{2-[(7-chloro-3,4-dihydroisoquinolin-2(1H)-yl)sulfonyl]-1-[(4S)-2,2-dimethyl-1,3-dioxolan-4-yl]ethyl}-N-hydroxyformamide]
20	0.056	–	–	O=CN(O)C(CS(=O)(=O)N1CCc2ccc(Cl)cc2C1)C1CCCC1 (stereo not drawn) [Example 21, N-{2-[(7-chloro-3,4-dihydroisoquinolin-2(1H)-yl)sulfonyl]-1-cyclopentylethyl}-N-hydroxyformamide]
0	0.389	–	–	O=CN(O)[C@@H](CS(=O)(=O)N1CCc2ccc(Cl)cc2C1)[C@H]1CCCO1 [Example 22, N-{(1R)-2-[(7-chloro-3,4-dihydroisoquinolin-2(1H)-yl)sulfonyl]-1-[(2R)-tetrahydrofuran-2-yl]ethyl}-N-hydroxyformamide]
52	0.013	–	–	O=CN(O)[C@H](CS(=O)(=O)N1CCc2ccc(Cl)cc2C1)[C@H]1CCCO1 [Example 23, N-{(1S)-2-[(7-chloro-3,4-dihydroisoquinolin-2(1H)-yl)sulfonyl]-1-[(2R)-tetrahydrofuran-2-yl]ethyl}-N-hydroxyformamide]
0	> 5	–	–	COc1cc2c(cc1OC)CN(S(=O)(=O)CC([C@H](O)CO)N(O)C=O)CC2 (stereo partly drawn) [Example 24, N-((2S)-1-{[(6,7-dimethoxy-3,4-dihydroisoquinolin-2(1H)-yl)sulfonyl]methyl}-2,3-dihydroxypropyl)-N-hydroxyformamide]
37	1.2	–	–	O=CN(O)C(CS(=O)(=O)N1CCc2cc(C(F)(F)F)ccc2C1)C1CCCC1 (stereo not drawn) [Example 25, N-(1-cyclopentyl-2-{[6-(trifluoromethyl)-3,4-dihydro-isoquinolin-2(1H)-yl]sulfonyl}ethyl)-N-hydroxyformamide]
